This is an account of results in patent US5622962A, “5α-reductase inhibitors” (priority 1995, dated 1997).

In test [1] the target is T1, Type I 5α-Reductase from Human Scalp (Homo sapiens, UniProt P18405).
T1 construct: Scalp punch biopsies from graft recipient sites were obtained from human hair transplant procedures; from tissue; host or cells: human scalp punch biopsies (hair transplant graft recipient sites), homogenate, 100,000×g pellet
T1 sequence (P18405 1-259): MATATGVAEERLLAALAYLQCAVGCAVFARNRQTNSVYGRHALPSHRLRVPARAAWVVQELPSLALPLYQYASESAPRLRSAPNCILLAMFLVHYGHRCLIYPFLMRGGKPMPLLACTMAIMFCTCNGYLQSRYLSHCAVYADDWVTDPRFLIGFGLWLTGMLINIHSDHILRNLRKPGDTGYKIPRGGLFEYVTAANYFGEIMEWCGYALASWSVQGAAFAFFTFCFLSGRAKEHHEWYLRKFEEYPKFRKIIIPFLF
As to the kind of experiment: Human Type I 5α-reductase assay (conversion of [3H]-testosterone to 5α-reduced metabolites). The class given is biochemical. The following applies: pH 7.5, 0.3 μM; 50 nM [3H]-testosterone, pH 7.5, 25°, 180 min; compared to control reaction mixtures; read-out: percent inhibition of Type I AR.

Test [2] concerns the target T2, Type II 5α-Reductase from Human Prostate (Homo sapiens, UniProt P31213).
T2 construct: The same procedure as above was used for preparations using tissue from prostate surgery; from tissue; host or cells: human prostate tissue from surgery, homogenate, 100,000×g pellet
T2 sequence (P31213 1-254): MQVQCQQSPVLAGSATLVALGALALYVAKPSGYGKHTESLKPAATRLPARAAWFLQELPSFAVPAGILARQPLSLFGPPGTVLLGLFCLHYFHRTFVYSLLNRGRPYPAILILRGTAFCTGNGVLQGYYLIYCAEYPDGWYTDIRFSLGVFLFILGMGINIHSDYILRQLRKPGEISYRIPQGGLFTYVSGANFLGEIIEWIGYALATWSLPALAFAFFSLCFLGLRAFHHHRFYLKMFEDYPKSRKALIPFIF
As to the kind of experiment: Human Type II 5α-reductase assay (conversion of [3H]-testosterone to 5α-reduced metabolites). Type of test: biochemical. Conditions: pH 5.5, 0.3 μM; sodium acetate pH 5.5, 25°, 30 min; compared to control reaction mixtures; read-out: percent inhibition of Type II AR.

By inhibition is commonly meant the drop in the measured response relative to a control, in per cent. In the case of `CN1C(=O)CC[C@]2(C)c3ccc(-c4c(F)c(F)c(F)c(F)c4F)cc3CC[C@@H]12` [Example 205, (+)-(4aR)-(10bR)-4-methyl-8-(2,3,4,5,6-pentafluorophenyl)-10b-methyl-1,2,3,4,4a,5,6,10b-octahydrobenzo[f]quinolin-3-one], the inhibition at 0.3 µM in test [1] came to 100%; in test [2], 37%.
As for `CN1C(=O)CC[C@]2(C)c3ccc(-c4nc5cc(Cl)c(Cl)cc5s4)cc3CC[C@@H]12` [Example 263, (+)-(4aR)-(10bR)-4-methyl-8-(2-[5,6-dichloro]benzothiazolyl)-10b-methyl-1,2,3,4,4a,5,6,10b-octahydrobenzo[f]quinolin-3-one], the inhibition at 0.3 µM was 56% in test [1] and 47% in test [2].
With `CN1C(=O)CC[C@]2(C)c3ccc(-c4cc(C(F)(F)F)ccc4F)cc3CC[C@@H]12` [Example 211, (+)-(4aR)-(10bR)-4-methyl-8-(2-fluoro-5-trifluoromethylphenyl)-10b-methyl-1,2,3,4,4a,5,6,10b-octahydrobenzo[f]-quinolin-3-one quinolin-3-one], the inhibition at 0.3 µM was determined as 70% in test [1] and 29% in test [2].
In the case of `CN1C(=O)CC[C@]2(C)c3ccc(-c4c5ccccc5cc5ccccc45)cc3CC[C@@H]12` [Example 61, (+)-(4aR)-(10bR)-4-methyl-8-(9-anthracenyl)-10b-methyl-1,2,3,4,4a,5,6,10b-octahydrobenzo[f]quinolin-3-one], the inhibition at 0.3 µM is 53% in test [1] and 36% in test [2].
On to `CN1C(=O)CC[C@]2(C)c3ccc(Sc4nnnn4-c4ccccc4)cc3CC[C@@H]12` [Example 154, (+)-(4aR)-(10bR)-4-methyl-8-(2-[3-phenyl]tetrazoylthio)-10b-methyl-1,2,3,4,4a,5,6,10b-octahydrobenzo[f]quinolin-3-one], for which the inhibition at 0.3 µM in test [1] turned out to be 56%; in test [2], 25%.
For the compound `CN1C(=O)CC[C@]2(C)c3ccc(-c4ccc5ccccc5n4)cc3CC[C@@H]12` [Example 247, (+)-(4aR)-(10bR)-4-methyl-8-(2-quinolinyl)-10b-methyl-1,2,3,4,4a,5,6,10b-octahydrobenzo[f]quinolin-3-one], the inhibition at 0.3 µM was determined as 60% in test [1] and 32% in test [2].
In the case of `CN1C(=O)CC[C@]2(C)c3ccc(Sc4cnccn4)cc3CC[C@@H]12` [Example 152, (+)-(4aR)-(10bR)-4-methyl-8-(2-pyrazinylthio)-10b-methyl-1,2,3,4,4a,5,6,10b-octahydrobenzo[f]quinolin-3-one], the inhibition at 0.3 µM in test [1] was determined as 47%; in test [2], 10%.
As to `CN1C(=O)CC[C@]2(C)c3ccc(-c4cc5ccccc5s4)cc3CC[C@@H]12` [Example 82, (+)-(4aR)-(10bR)-4-methyl-8-(2-benzothienyl)-10b-methyl-1,2,3,4,4a,5,6,10b-octahydrobenzo-[f]quinolin-3-one], the results for the inhibition at 0.3 µM in test [1] and in test [2] were 85% and 31%, respectively.
For `Cc1ccccc1Sc1ccc2c(c1)CC[C@H]1NC(=O)CC[C@]21C` [Example 9, (+)-(4aR)-(10bR)-8-(2-methylphenylthio)-10b-methyl-1,2,3,4,4a,5,6,10b-octahydrobenzo[f]quinolin-3-one], the figures for the inhibition at 0.3 µM in test [1] and in test [2] were 3% and 31%, respectively.
As for `CN1C(=O)CC[C@]2(C)c3ccc(CCc4ccc5ccccc5c4)cc3CC[C@@H]12` [Example 276, (+)-(4aR)-(10bR)-4-methyl-8-(2-[2-naphthyl]ethyl)-10b-methyl-1,2,3,4,4a,5,6,10b-octahydrobenzo[f]quinolin-3-one], the inhibition at 0.3 µM in test [1] came out at 92%; in test [2] it was 33%.
Take `CSc1ccc(-c2ccc3c(c2)CC[C@H]2N(C)C(=O)CC[C@]32C)cc1` [Example 120, (+)-(4aR)-(10bR)-4-methyl-8-(4-methylthiophenyl)-10b-methyl-1,2,3,4,4a,5,6,10b-octahydrobenzo[f]quinolin-3-one]: the inhibition at 0.3 µM came out at 93% in test [1] and 37% in test [2].
Consider `CN1C(=O)CC[C@]2(C)c3ccc(C(=O)NC(c4ccccc4)c4ccccc4)cc3CC[C@@H]12` [Example 148, (4aR)-(10bR)-4,10b-dimethyl-8-diphenylmethylcarboxamido-1,2,3,4,4a,5,6,10b-octahydrobenzo[f]quinolin-3-one], for which the inhibition at 0.3 µM was found to be 2% in test [1] and 12% in test [2].
`CCN(CC)C(=O)c1ccccc1-c1ccc2c(c1)CC[C@H]1N(C)C(=O)CC[C@]21C` [Example 74]: the inhibition at 0.3 µM in test [1] stood at 16%; in test [2], 26%.
In the same order, the values of `Cc1ccc(-c2ccc3c(c2)CC[C@H]2N(C)C(=O)CC[C@]32C)cc1` [Example 51, (+)-(4aR)-(10bR)-4-methyl-8-(4-methylphenyl)-10b-methyl-1,2,3,4,4a,5,6,10b-octahydrobenzo[f]quinolin-3-one] are 91% and 14%.
For `C[C@]12CCC(=O)N[C@@H]1CCc1cc(Sc3ccccc3Cl)ccc12` [Example 7], the inhibition at 0.3 µM in test [1] worked out at 49%; in test [2], 42%.
Consider `COc1cccc(Sc2ccc3c(c2)CC[C@H]2NC(=O)CC[C@]32C)c1` [Example 15, (4aR)-(10bR)-8-(3-methoxyphenylthio)-10b-methyl-1,2,3,4,4a,5,6,10b-octahydrobenzo[f]quinolin-3-one], for which the inhibition at 0.3 µM was 23% in test [1] and 39% in test [2].
`CN1C(=O)CC[C@]2(C)c3ccc(-c4nc5ccc(Cl)cc5s4)cc3CC[C@@H]12` [Example 265, (+)-(4aR)-(10bR)-4-methyl-8-(2-[6-chloro]benzothiazolyl)-10b-methyl-1,2,3,4,4a,5,6,10b-octahydrobenzo[f]quinolin-3-one]: the inhibition at 0.3 µM in test [1] is 78%; in test [2] it was 40%.
Consider `CN1C(=O)CC[C@]2(C)c3ccc(-c4cccc(NC(=O)C(C)(C)C)c4)cc3CC[C@@H]12` [Example 274, (+)-(4aR)-(10bR)-4-methyl-8-(3-[pivaloylamino]phenyl)-10b-methyl-1,2,3,4,4a,5,6,10b-octahydrobenzo[f]quinolin-3-one], for which the inhibition at 0.3 µM in test [1] is 34%; in test [2], 32%.
As to `CN1C(=O)CC[C@]2(C)c3ccc(-c4cc(Cl)cc(Cl)c4)cc3CC[C@@H]12` [Example 52, (+)-(4aR)-(10bR)-4-methyl-8-(3,5-dichlorophenyl)-10b-methyl-1,2,3,4,4a,5,6,10b-octahydrobenzo[f]quinolin-3-one], the values for the inhibition at 0.3 µM in test [1] and in test [2] were 68% and 10%, respectively.
For the compound `CN1C(=O)CC[C@]2(C)c3ccc(Sc4ccncc4)cc3CC[C@@H]12` [Example 115, (+)-(4aR)-(10bR)-4,10b-dimethyl-8-(4-pyridinylthio)-1,2,3,4,4a,5,6,10b-octahydrobenzo[f]quinolin-3-one], the inhibition at 0.3 µM is 31% in test [1] and 20% in test [2].
For `CN1C(=O)CC[C@]2(C)c3ccc(-c4ccc(F)c(Cl)c4)cc3CC[C@@H]12` [Example 88, (+)-(4aR)-(10bR)-4-methyl-8-(3-chloro-4-fluorophenyl)-10b-methyl-1,2,3,4,4a,5,6,10b-octahydrobenzo[f]quinolin-3-one], the values for the inhibition at 0.3 µM in test [1] and in test [2] were 96% and 43%, respectively.
